Drawing on publication PMC4667193 (Scientific Reports, 2015), this text covers Ki for 1 compound.

Experiment in all cases: [^3H]NMS radioligand competition binding, CHO cell membranes
(In a radioligand displacement assay an active substance lowers the binding of a labelled ligand.)

One assay concerns the target T1, Rat M5 mAChR (Rattus norvegicus, UniProt P08911).
T1 construct: host or cells: CHO (CHO-K1) cells
T1 sequence (P08911 1-531): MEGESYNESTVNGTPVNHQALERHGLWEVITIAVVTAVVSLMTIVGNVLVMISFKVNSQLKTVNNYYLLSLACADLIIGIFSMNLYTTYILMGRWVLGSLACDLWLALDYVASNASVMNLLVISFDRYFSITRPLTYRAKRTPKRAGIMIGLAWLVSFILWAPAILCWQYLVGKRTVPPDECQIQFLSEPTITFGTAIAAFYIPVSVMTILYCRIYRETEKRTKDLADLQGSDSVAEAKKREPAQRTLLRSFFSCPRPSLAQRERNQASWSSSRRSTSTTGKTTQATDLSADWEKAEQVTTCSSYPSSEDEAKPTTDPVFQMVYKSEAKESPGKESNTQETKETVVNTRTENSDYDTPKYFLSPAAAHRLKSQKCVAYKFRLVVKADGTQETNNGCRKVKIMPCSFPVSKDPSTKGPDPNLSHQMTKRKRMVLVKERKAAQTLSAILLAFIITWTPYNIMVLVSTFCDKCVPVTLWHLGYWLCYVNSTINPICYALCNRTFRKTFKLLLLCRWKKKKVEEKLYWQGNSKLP
Particulars: rat M5, 0.1 nM [^3H]NMS. The method, then:
(§1) Membranes were prepared from CHO cells stably expressing individual rat mAChRs (rM1 to rM5). Briefly, media was removed, cells were washed with PBS and harvested with PBS into a centrifuge bottle. Cells were spun at 2,000 g for 5 minutes at 4 °C. After harvesting, the supernatant was gently discarded and cold membrane preparation buffer [Hanks’ balanced salt solution (HBSS; Invitrogen), 4.17 mM sodium bicarbonate, 20 mM HEPES and 0.5 mM EDTA] was added (10 mL/dish). Cells were then homogenized for 5–10 seconds with a rotary homogenizer (Polytron®) and centrifuged at 20,000g for 20 minutes at 4 °C. The homogenization/centrifugation cycle was repeated twice. After the last centrifugation, the supernatant was gently discarded and the pellet was resuspended in cold membrane preparation buffer (up to 2 mL). All binding reactions were performed in a total volume of 1 mL containing 25 μg of membrane protein. […] The equilibrium binding was terminated by rapid filtration using a 96-well harvester (Brandel®). Filters were washed three times with ice-cold harvesting buffer and were dried overnight. Radioactivity was counted using a TopCount NXT (PerkinElmer®) and counts were normalized to the maximal specific binding in the presence of vehicle. Saturation and competition binding data were analyzed using a weighted nonlinear least-squares interactive curve-fitting program GraphPad Prism (GraphPad Prism Software version 5.0). A mathematical model for one or two binding sites was applied. The equilibrium dissociation constant (KD) and the binding capacity (Bmax) were determined. The inhibition constant (Ki) was determined from competition curves using the Cheng and Prusoff equation[52].

Another assay concerns the target T2, Rat M2 mAChR (Rattus norvegicus, UniProt P10980).
T2 construct: host or cells: CHO (CHO-K1) cells
T2 sequence (P10980 1-466): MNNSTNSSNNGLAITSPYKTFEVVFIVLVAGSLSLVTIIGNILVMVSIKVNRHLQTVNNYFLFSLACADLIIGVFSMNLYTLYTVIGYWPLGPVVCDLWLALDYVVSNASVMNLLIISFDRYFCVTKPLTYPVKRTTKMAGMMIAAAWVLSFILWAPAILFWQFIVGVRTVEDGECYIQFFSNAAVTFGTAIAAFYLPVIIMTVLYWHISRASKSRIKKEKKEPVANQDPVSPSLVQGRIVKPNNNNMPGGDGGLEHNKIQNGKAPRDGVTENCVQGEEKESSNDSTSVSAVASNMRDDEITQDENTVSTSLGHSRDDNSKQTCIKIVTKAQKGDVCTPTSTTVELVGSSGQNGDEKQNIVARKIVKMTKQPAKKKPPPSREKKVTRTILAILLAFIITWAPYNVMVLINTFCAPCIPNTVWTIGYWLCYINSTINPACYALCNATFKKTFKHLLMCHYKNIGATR
The note with it: rat M2, 0.1 nM [^3H]NMS. The protocol: as §1

For a further assay, the target named is T3, Rat M1 mAChR (Rattus norvegicus, UniProt P08482).
T3 construct: host or cells: CHO (CHO-K1) cells
T3 sequence (P08482 1-460): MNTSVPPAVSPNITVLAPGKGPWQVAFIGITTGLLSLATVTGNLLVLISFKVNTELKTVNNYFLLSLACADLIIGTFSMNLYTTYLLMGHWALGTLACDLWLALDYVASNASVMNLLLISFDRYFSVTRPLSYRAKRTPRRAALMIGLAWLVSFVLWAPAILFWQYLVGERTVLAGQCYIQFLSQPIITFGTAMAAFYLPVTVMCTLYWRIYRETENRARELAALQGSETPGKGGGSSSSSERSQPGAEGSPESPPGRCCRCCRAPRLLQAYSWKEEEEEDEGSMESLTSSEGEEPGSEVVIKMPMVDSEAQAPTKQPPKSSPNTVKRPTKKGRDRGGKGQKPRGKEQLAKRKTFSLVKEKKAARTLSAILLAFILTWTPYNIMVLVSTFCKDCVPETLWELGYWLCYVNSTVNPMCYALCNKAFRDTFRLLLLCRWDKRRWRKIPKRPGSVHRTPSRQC
The note with it: rat M1, 0.1 nM [^3H]NMS. The method, then: as §1

The target in another assay is T4, Rat M3 mAChR (Rattus norvegicus, UniProt P08483).
T4 construct: host or cells: CHO (CHO-K1) cells
The note with it: rat M3, 0.1 nM [^3H]NMS. The method, then:
as §1

The next assay addresses T5, Rat M4 mAChR (Rattus norvegicus, UniProt P08485).
T5 construct: host or cells: CHO (CHO-K1) cells
T5 sequence (P08485 1-478): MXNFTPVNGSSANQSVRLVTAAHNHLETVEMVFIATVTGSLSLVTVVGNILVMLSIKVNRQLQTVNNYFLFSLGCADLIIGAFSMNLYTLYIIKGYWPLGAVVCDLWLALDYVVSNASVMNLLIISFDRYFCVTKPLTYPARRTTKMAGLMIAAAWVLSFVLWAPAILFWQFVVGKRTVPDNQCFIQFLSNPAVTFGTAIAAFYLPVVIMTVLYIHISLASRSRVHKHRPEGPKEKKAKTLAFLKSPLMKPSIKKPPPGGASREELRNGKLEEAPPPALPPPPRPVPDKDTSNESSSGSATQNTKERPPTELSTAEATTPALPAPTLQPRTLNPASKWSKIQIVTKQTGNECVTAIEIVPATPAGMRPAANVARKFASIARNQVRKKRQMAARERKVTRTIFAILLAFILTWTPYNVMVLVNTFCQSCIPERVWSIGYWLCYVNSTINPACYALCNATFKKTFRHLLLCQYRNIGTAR
Particulars: rat M4, 0.1 nM [^3H]NMS. The method, then: as §1

As a reminder, the Ki is a measure of affinity in units of concentration, obtained from inhibition or displacement. Read a high Ki as weaker binding.

Molecules are shown by their SMILES.

T4 sequence (P08483 whole entry): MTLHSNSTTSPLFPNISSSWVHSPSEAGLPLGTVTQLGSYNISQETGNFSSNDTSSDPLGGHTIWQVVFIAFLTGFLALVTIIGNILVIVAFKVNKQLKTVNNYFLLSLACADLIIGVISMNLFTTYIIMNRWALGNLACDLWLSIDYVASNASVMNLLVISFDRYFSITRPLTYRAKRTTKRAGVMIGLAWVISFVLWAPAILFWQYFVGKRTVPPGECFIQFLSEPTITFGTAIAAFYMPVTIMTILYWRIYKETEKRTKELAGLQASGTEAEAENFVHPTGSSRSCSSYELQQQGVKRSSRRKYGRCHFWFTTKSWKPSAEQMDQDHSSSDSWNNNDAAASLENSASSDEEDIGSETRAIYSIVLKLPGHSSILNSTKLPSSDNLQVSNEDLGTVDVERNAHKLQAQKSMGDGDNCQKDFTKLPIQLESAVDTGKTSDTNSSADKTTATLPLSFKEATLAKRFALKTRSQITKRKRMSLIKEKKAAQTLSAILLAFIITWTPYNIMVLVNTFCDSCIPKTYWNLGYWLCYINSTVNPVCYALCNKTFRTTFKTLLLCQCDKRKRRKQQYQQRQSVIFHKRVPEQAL

Consider `COC(=O)C1=CC[C@@H]2CC[C@H]1N2C` [AEME, anhydroecgonine methyl ester], for which the inhibition constant Ki is 29.5 µM on Rat M5 mAChR; 19.5 µM on Rat M2 mAChR; 25.7 µM on Rat M1 mAChR; 33.9 µM at Rat M3 mAChR; 24.5 µM on Rat M4 mAChR.
